Laboratory results published in article PMC5017749, “Preclinical Metabolism, Pharmacokinetics and In Vivo Analysis of New Blood-Brain-Barrier Penetrant Fingolimod Analogues: FTY720-C2 and FTY720-Mitoxy” (PLoS ONE, 2016).
Like-named read-outs stand apart in the source and are kept apart here.

What was measured:
[1] = Plasma and brain pharmacokinetics after single oral or intravenous dosing of mice; type: in vivo; conditions: for Tmax / half-life: male; for oral bioavailability: single oral dose; for half-life: iv
Description: The objectives of this study were to evaluate the pharmacokinetic profiles of FTY720-C2 and FTY720-Mitoxy following single oral and intravenous (IV) dosing of male mice and to determine blood and tissue levels of both compounds at various postdose time points. Male C57BL/6 mice were 8.4 weeks of age and weighed 20.6–24.8 g on the day of dose administration. Each animal was identified by a unique number via an ear tag with a matching cage tag. Mice were administered (two mice per time point) a single equivalent molar dose of either FTY720-C2 (1 mg/kg) or FTY720-Mitoxy (2 mg/kg) by oral or intravenous administration. As the molecular weight of FTY720-Mitoxy (704.72 g/mol) is ~ two times greater than that of FTY720-C2 (349.51 g/mol), the dose level of FTY720-Mitoxy was double that of FTY720-C2. Details of the design showing group assignments, dose groups, dose levels, as well as blood collection and necropsy time points are shown in Table 2. At the appropriate time points after dosing and blood sample collection for bioanalysis, animals were euthanized by CO2 inhalation until unresponsive, followed by decapitation. Brains were rapidly harvested, rinsed with ice cold saline, blotted dry and bisected along the mid-line. The left and right hemispheres of the brain were weighed separately. Each was placed in separate tubes, immediately flash frozen in liquid nitrogen and stored at -70°C prior to evaluation. All samples were labeled with the test facility study number, animal identification number, dose group, date, collection interval, and tissue identity (left or right brain hemisphere). Adrenal glands from each mouse were also collected and flash frozen.
FTY720-C2 and FTY720-Mitoxy concentrations in plasma and brain were determined by LC-MS/MS. Samples were first prepared by liquid-liquid extraction. To 50 μL of plasma or brain homogenate were added 50 μL of 0.1 M NaOH and 50 μL of internal standard solution (C17 sphingosine) in ethanol. Analytes were then extracted into 1 mL of methyl tert-butyl ether:dichloromethane mixture (75:25, v/v) by vortexing for 1 hr and centrifuged. Supernatants were evaporated to dryness under nitrogen. Residues were reconstituted in 150 μL of 50% methanol in water and spin filtered before applied onto XBridge C18 column (3.5-μm particle; Waters, Milford, MA) with a SecurityGuard C18 guard column (4.0 × 2.0 mm; Phenomenex Inc.). Separations were accomplished with a gradient of 0.1% acetic acid in water (v/v) versus 0.1% acetic acid in acetonitrile:methanol (75:25, v/v) at a rate of 0.5 mL/min. The eluents were further applied into an equipped API 4000 QTrap mass spectrometer (AB Sciex, Foster City, CA) with electrospray ionization (ESI) interface by two coupled LC-10 AT pumps, and monitored in multiple reaction monitoring (MRM) mode with precursor to product ion pairs for C17 sphingosine, FTY720-C2, and FTY720-Mitoxy as following: m/z 286.3 to 268.2, m/z 350.3 to 255.2, and m/z 624.4 to 289.2, respectively.
Pharmacokinetic analysis was conducted using WinNonlin Version 6.2 (Pharsight, Mountain View CA), operating as a validated software system. Non-compartmental analysis was conducted using a bolus intravenous administration model for IV dosing and an extravascular administration model for oral dosing. The peak plasma concentration, time to achieve peak plasma concentration, half-life, mean residence time, and area under the plasma or brain concentration-time curve (Cmax, Tmax, T1/2, and AUC) were calculated from mean animal plasma and brain concentrations. Nominal blood collection times were used for pharmacokinetic calculations.

[2] = Metabolite profiling and identification in rat hepatocytes; type: in vitro ADME, rat (Sprague Dawley); set-up: key to Source (peak identified in rat hepatocytes): R = Rat; hr = Human; lowercase letter indicates low abundance; h: lowercase letter indicates low abundance; conditions: for phosphorylated metabolites / parent peak after 2 hr incubation: rat hepatocytes; for parent peak after 2 hr incubation: 1 μM
Description: Cryopreserved hepatocytes were grown in culture and incubations were performed to generate samples to measure the formation of FTY720-C2 and FTY720-Mitoxy metabolites. Incubations of 1 mL medium containing 1 million cells and 1 μM of FTY720-C2 and FTY720-Mitoxy were conducted at 37° C in a 5% CO2 incubator for 0, 1 and 2 hr, with gentle shaking. Positive control incubations used a cocktail solution containing 10 μM testosterone and 10 μM diclofenac performed for 0, 1 and 2 hr, under similar conditions to confirm the metabolic activity of the hepatocytes. The reactions were terminated by adding 2 mL acetonitrile containing 0.02% formic acid, and thoroughly mixing with gentle vortexing. Samples were transferred into 6 mL vials and stored in the freezer (-70°C) overnight for protein precipitation. Following overnight precipitations, samples were centrifuged at 3,000 rpm for 10 min to pellet proteins. Supernatants were transferred into clean 6 mL vials and evaporated to dryness using a TurboVap concentrator system. Samples were reconstituted using 600 μL 20% acetonitrile in water, briefly vortexed to resuspend, then aliquoted for LC-MS/MS analysis. Controls incubations also included “No drug control” and “no cell control” samples treated in a similar manner as test article samples.
Metabolite profiling and identification experiments were conducted by LC-MS/MS, composed of an HPLC system consisting of an Agilent Technologies 1200 Series Model G1322A Degasser, Agilent Technologies 1200 Series Model G1312A Binary Pump, Shimadzu HTc autosampler, and Valco Model E60 Flow Diversion Valve, and coupled to an API 4000 mass spectrometer. Separations were accomplished on a Gemini C18 column (150 × 2.0 mm, 5-μm particles; Phenomenex Inc., Torrance, CA), preceded by a SecurityGuard C18 guard column (4.0 × 2.0 mm; Phenomenex Inc.). A two-component mobile phase, consisted of a linear gradient of water containing 0.5% formic acid (v/v) and methanol:acetonitrile (1:1, v/v) containing 0.5% formic acid (v/v), was pumped at 0.3 mL/min. The first 4 min of flow was diverted away from the mass spectrometer. Analysis of the positive control samples was conducted with an HPLC system consisting of two Shimadzu LC-10ATvp pumps and a LEAP Pal autosampler. Separations were accomplished on a Luna C8(2) column (50 × 2.0 mm, 3-μm particles; Phenomenex Inc., Torrance, CA), preceded by a SecurityGuard C18 column (4.0 × 2.0 mm; Phenomenex Inc.). Separation was accomplished with a gradient of water containing 0.2% formic acid and 0.012% NH4OH (v/v) versus acetonitrile at an initial rate of 0.7 mL/min. An API 4000 QTrap mass spectrometer (AB Sciex, Foster City, CA) was used for analysis of positive control samples. Each mass spectrometer used was equipped with an electrospray ionization source and operated in the positive ionization mode. Metabolite identification experiments were performed by recording full scan mass spectral data (Q1MS) for all samples, and selected samples were analyzed to obtain product ion spectra (MS/MS) of test article metabolites identified in the full scan mass spectral data.

[3] = IV administration, sampling 5 min, 8, 24, 48 hr
[4] = oral administration, 1 mg/kg, first sampling time point

Compound	detected in plasma and brain up to (postdose) [1, 3]	time to penetrate the blood-brain-barrier after delivery ([1]; IV dosing)	brain concentrations compared with plasma at 8 hr postdose ([1]; after both IV and oral dosing, 8 hr postdose)	Tmax ([1]; C57BL/6, mouse, brain, IV dosing, FTY720-C2 1 mg/kg or FTY720-Mitoxy 2 mg/kg, first sampling time point, read-out: Tmax / time of highest concentration in brain (converted))	Tmax ([1]; C57BL/6, mouse, plasma, IV dosing, FTY720-C2 1 mg/kg or FTY720-Mitoxy 2 mg/kg, first sampling time point, read-out: Tmax / time of highest concentration in plasma (converted))	partitioning to brain ([1]; mice)	oral bioavailability ([1]; mice)	time of highest concentration in brain [1, 4]	time of highest concentration in plasma [1, 4]	detected in plasma and brain up to (postdose) ([1]; oral administration, sampling 1, 8, 24, 48 hr)	Source (peak identified in rat hepatocytes) ([2]; FTY720-C2 incubation, Table 4)	phosphorylated metabolites [2]	parent peak after 2 hr incubation [2]	Tmax / time of highest concentration in brain ([1]; IV dosing, FTY720-C2 1 mg/kg or FTY720-Mitoxy 2 mg/kg, first sampling time point)	half-life ([1]; mouse, in vivo, 2 mg/kg, IV dosing, 2 mg/kg, read-out: brain elimination half-life (converted))	half-life ([1]; mouse, in vivo, 2 mg/kg, IV dosing, 2 mg/kg, read-out: plasma elimination half-life (converted))	half-life ([1]; mouse, in vivo, 2 mg/kg, mice, IV, plasma and brain, read-out: half-lives)	Tmax ([1]; mouse, in vivo, IV dosing, FTY720-C2 1 mg/kg or FTY720-Mitoxy 2 mg/kg, first sampling time point, read-out: Tmax / time of highest concentration in plasma (converted))	detection in plasma or brain following oral dosing ([1]; oral, 2 mg/kg)	Source (peak identified in rat hepatocytes) ([2]; FTY720-Mitoxy incubation, Table 5)
CCCCCCCCc1ccc(CCC(CO)(CO)NC(C)=O)cc1 [FTY720-C2, N-(1-hydroxy-2-(hydroxymethyl)-4-(4-octylphenyl)butan-2-yl)acetamide]	8 h	≤ 5 min	much higher	5 min	5 min	preferentially partition to brain	orally bioavailable	1 h	1 h	8 h	R	never detected	drastically diminished							
CCCCCCCCc1ccc(CCC(CO)(CO)NC(=O)CC[P+](c2ccccc2)(c2ccccc2)c2ccccc2)cc1 [FTY720-Mitoxy, N-(1-hydroxy-2-(hydroxymethyl)-4-(4-octylphenyl)butan-2-yl)-3’-triphenylphosphoniumpropanamide]	48 h	≤ 5 min				preferentially partition to brain	not orally bioavailable					never detected	most FTY720-Mitoxy was still unchanged	5 min	106 min	56.4 min	< 120 min	5 min	not detected	R
